Tests used:
C57BL/6 mice = experiment: In vivo bioluminescence assay of lipid nanoparticles encapsulated with luciferase mRNA in mice; details: for Total photon count in vivo at 6 hours after administration (Total Flux): C57BL/6 mice, intravenous, single dose 0.5 mg/kg luciferase mRNA in LNP, group mean
Description: (§1) Lipid nanoparticles were prepared by (1) dissolving and mixing ionizable lipid compounds, cholesterol, phospholipids and polyethylene glycolated lipids in ethanol at (molar percentages) 50%, 38.5%, 10% and 1.5%, respectively; (2) dissolving the mRNA active ingredient in 25 mM sodium acetate solution (pH=4.5); (3) using an automated high-throughput microfluidic system to mix the organic phase containing the lipid mixture and the aqueous phase containing the mRNA component in the flow ratio range of 1:1 to 1:4 at a mixing speed of 10 mL/min to 18 mL/min; (4) the prepared lipid nanoparticles (N/P ratio of 6) were diluted with phosphate buffer solution and the nanoparticle solutions were ultrafiltered to the original preparation volume using ultrafiltration tubes (purchased from Millipore) with a cut-off molecular weight of 30 kDa; and (5) the obtained nanoparticles were filtered through a sterile 0.2 μm filter membrane and then stored in a sealed glass vial at low temperature.
The delivery effect and safety of nanoparticles encapsulated with luciferase mRNA (Trilink, L-7202) in mice were evaluated. The test mice were SPF-grade C57BL/6 mice, female, 6-8 weeks old, weighing 18-22 g, and were purchased from SPF (Beijing) Biotechnology Co., Ltd. All animals were acclimatized for more than 7 days prior to the experiment, and had free access to food and water during the experiment. The conditions include alternating light and dark for 12/12 h, the indoor temperature of 20-26° C. and the humidity of 40-70%. The mice were randomly grouped. The lipid nanoparticles encapsulated with luciferase mRNA prepared above were injected into mice by intravenous administration at a single dose of 0.5 mg/kg mRNA, and the mice were subjected to in vivo bioluminescence assay using a Small Animal In Vivo Imaging System (IVIS LUMINA III, purchased from PerkinElmer) at 6 h after administration. The assay was performed as follows: D-luciferin solution was prepared in saline at a concentration of 15 mg/mL, and each mouse was given the substrate by intraperitoneal injection. At ten minutes after administration of the substrate, the mice were anesthetized in an anesthesia chamber with isoflurane at a concentration of 2.5%. The anesthetized mice were placed in IVIS for fluorescence imaging, and data acquisition and analysis were performed on the concentrated distribution area of fluorescence.
The in vivo delivery efficiency of lipid nanoparticle carriers was expressed as the mean values of fluorescence intensity and total photon count in different animals within the same subject group, as shown in Table 5. Higher values of fluorescence intensity and total photon count indicate higher in vivo delivery efficiency of this mRNA fragment by lipid nanoparticles. The lipid nanoparticles containing the cationic lipids of the present disclosure have good in vivo delivery efficiency.

[1] = Encapsulation efficiency of lipid nanoparticles, Quant-It RiboGreen RNA Assay; type: physicochemical; details: lipid nanoparticle with the cationic lipid, luciferase mRNA
Description: as §1
(§2) The particle size and particle size dispersity index (PDI) of the prepared lipid nanoparticles were measured using a Zetasizer Pro (purchased from Malvern Instruments Ltd) and a DynaPro NanoStar (purchased from Wyatt) dynamic light scattering instrument. The degree of RNA encapsulation by lipid nanoparticles was characterized by the Encapsulation Efficiency %, which reflects the degree of binding of lipid nanoparticles to RNA fragments. This parameter was measured by the method of Quant-It™ RiboGreen RNA Assay (purchased from Invitrogen). Lipid nanoparticle samples were diluted in TE buffer (10 mM Tris-HCl, 1 mM EDTA, pH=7.5). A portion of the sample solution was removed, to which 0.5% Triton (Triton X-100) was added, and then allowed to stand at 37° C. for 30 minutes. Immediately after the addition of RIBOGREEN® reaction solution, the fluorescence values were read on a Varioskan LUX multifunctional microplate reader (purchased from Thermofisher) at 485 nm for absorption and 528 nm for emission to give the encapsulation efficiency values.

[2] = Particle size and PDI of lipid nanoparticles by dynamic light scattering; type: physicochemical; details: lipid nanoparticle with the cationic lipid, cholesterol, DSPC, DMG-PEG2000 (50/38.5/10/1.5 mol%), luciferase mRNA, N/P 6
Description: as §1, §2

Structure (SMILES)	Encapsulation efficiency (%) [1]	Particle size (nm) [2]	Particle size dispersity (PDI) [2]	Total photon count in vivo at 6 hours after administration (Total Flux) (C57BL/6 mice)	in vivo delivery efficiency compared with the molecule without tetramethyl (C57BL/6 mice; LNP with luciferase mRNA in mice, compound 20 vs. D1, compound 46 vs. D2)
CCCCCCCCCOC(=O)CC(C)(C)CCCCC(CCCCC(C)(C)CC(=O)OCCCCCCCCC)OC(=O)CCCN(C)C [Compound 97]	93.72%	157.00 nm	0.25	3.37E+09	
CC(C)CCCCCCCOC(=O)CCC(C)(C)CCCC(CCCC(C)(C)CCC(=O)OCCCCCCCC(C)C)OC(=O)CCCN(C)C [Compound 127]	62.35%	83.01 nm	0.05	3.59E+10	
CCCCCCCCCCOC(=O)C(C)(C)CCCCCC(CCCCCC(C)(C)C(=O)OCCCCCCCCCC)OC(=O)C1CCN(C)CC1 [Compound 99]	90.69%	139.99 nm	0.05	5.30E+09	
CCCCCCCCCCNC(=O)C(C)(C)CCCCCC(CCCCCC(C)(C)C(=O)NCCCCCCCCCC)OC(=O)CCCN(C)C [Compound 14]	45.66%	306.07 nm	0.08	6.34E+07	
CCCCCCCCC(CCCCCC)OC(=O)C(C)(C)CCCCCC(CCCCCC(C)(C)C(=O)OC(CCCCCC)CCCCCCCC)OC(=O)CCN(C)C (centres unmarked) [Compound 16]	96.52%	55.39 nm	0.05	3.97E+07	
CCCCCCCCCOC(=O)C(C)(C)CCCCCC(CCCCCC(C)(C)C(=O)OCCCCCCCCC)OC(=O)CC1CCN(CCO)CC1 [Compound 113]	94.77%	112.65 nm	0.03	3.59E+08	
CCCCCCCCCSC(=O)C(C)(C)CCCCCC(CCCCCC(C)(C)C(=O)SCCCCCCCCC)OC(=O)CC1CCN(CCO)CC1 [Compound 110]	92.65%	97.59 nm	0.01	2.06E+08	
CCCCCCCCN(CCCCCCCC)CCOC(=O)C(C)(C)CCCCCC(CCCCCC(C)(C)C(=O)OCCN(CCCCCCCC)CCCCCCCC)OC(=O)CCN(C)C [Compound 15]	84.78%	91.68 nm	0.06	4.89E+08	
CCCCCCCCCCNC(=O)C(C)(C)CCCCCC(CCCCCC(C)(C)C(=O)NCCCCCCCCCC)OC(=O)CN(C)C [Compound 13]	56.65%	157.10 nm	0.08	1.08E+06	
CCCCCCCCCCOC(=O)C(C)(C)CCCCCC(CCCCCC(C)(C)C(=O)OCCCCCCCCCC)OC(=O)CCCN(C)C [Compound 18]	87.86%	161.29 nm	0.05		
CCCCCCCCCNC(=O)C(C)(C)CCCCCC(CCCCCC(C)(C)C(=O)NCCCCCCCCC)OC(=O)CCN(C)C [Compound 9]	19.41%	352.82 nm	0.07		
CCCCCCCCCCSC(=O)C(C)(C)CCCCCC(CCCCCC(C)(C)C(=O)SCCCCCCCCCC)OC(=O)CCN(C)C [Compound 33]	88.67%	105.84 nm	0.04		
CCCCCCCCC(CCCCCCCC)NC(=O)C(C)(C)CCCCCC(CCCCCC(C)(C)C(=O)NC(CCCCCCCC)CCCCCCCC)OC(=O)CCN(C)C [Compound 11]	95.61%	46.49 nm	0.03		
CCCCCCCCCOC(=O)C(C)(C)CCCCCC(CCCCCC(C)(C)C(=O)OCC(CCCCC)CCCCCCC)OC(=O)CC1CCN(CCO)CC1 (centres unmarked) [Compound 114]	93.41%	72.32 nm	0.04	1.06E+08	
CC/C=C\CCCCCOC(=O)C(C)(C)CCCCCC(CCCCCC(C)(C)C(=O)OCCCCC/C=C\CC)OC(=O)CCN(C)C [Compound 7]	69.51%	203.67 nm	0.04		
CCCCCCCCCCSC(=O)C(C)(C)CCCCCC(CCCCCC(C)(C)C(=O)SCCCCCCCCCC)OC(=O)CCCN(C)C [Compound 34]	90.29%	104.71 nm	0.04		
CCCCCCC#CCOC(=O)C(C)(C)CCCCCC(CCCCCC(C)(C)C(=O)OCCCCCCCCC)OC(=O)CCCN(C)C (centres unmarked) [Compound 42]	71.95%	152.04 nm	0.07		

Further lines, with some results ahead:

Encapsulation efficiency (%) [1]	Particle size (nm) [2]	Particle size dispersity (PDI) [2]	Structure (SMILES)	Total photon count in vivo at 6 hours after administration (Total Flux) (C57BL/6 mice)	in vivo delivery efficiency compared with the molecule without tetramethyl (C57BL/6 mice; LNP with luciferase mRNA in mice, compound 20 vs. D1, compound 46 vs. D2)
97.08%	131.2 nm	0.18	CCCCCCCCCOC(=O)CCCCCCC(CCCCCCC(=O)OCCCCCCCCC)OC(=O)CCCN(C)C [Compound D1, reference compound]		
85.65%	83.09 nm	0.05	CCCCCCCCCSC(=O)C(C)(C)CCCCCC(CCCCCC(C)(C)C(=O)SCCCCCCCCC)OC(=O)C1CCN(C)CC1 [Compound 106]		
95.68%	97.30 nm	0.09	CCCCCCCCCOC(=O)C(C)(C)CCCCCC(CCCCCC(C)(C)C(=O)OCC(CCCCC)CCCCCCC)OC(=O)CCCN(C)C (centres unmarked) [Compound 46]		significantly increased in vivo delivery efficiency
76.09%	152.45 nm	0.06	CCCCCCCCOC(=O)C(C)(C)CCCCCC(CCCCCC(C)(C)C(=O)OCCCCCCCC)OC(=O)C1CCN(C(C)C)CC1 [Compound 101]		
102.99%	32.61 nm	0.05	CCCCCCCCCCOC(=O)C(C)(C)CCCCCC(CCCCCC(C)(C)C(=O)OCCCCCCCCCC)OC(=O)CN1CCOCC1 [Compound 91]		
90.97%	148.67 nm	0.04	CCCCCCCCCOC(=O)C(C)(C)CCCCCC(CCCCCC(C)(C)C(=O)OCCCCCCCCC)OC(=O)C1CCN(C(C)C)CC1 [Compound 103]		
95.29%	127.31 nm	0.06	CCCCC(CC#CCOC(=O)C(C)(C)CCCCCC(CCCCCC(C)(C)C(=O)OCC#CCC(CCCC)CCCC)OC(=O)CCCN(C)C)CCCC [Compound 117]		
94.67%	78.80 nm	0.05	CCCCCCCCCCSC(=O)C(C)(C)CCCCCC(CCCCCC(C)(C)C(=O)SCCCCCCCCCC)OC(=O)C1CCN(C(C)C)CC1 [Compound 105]		
85.54%	71.14 nm	0.06	CCCCCCCCCCSC(=O)C(C)(C)CCCCCC(CCCCCC(C)(C)C(=O)SCCCCCCCCCC)OC(=O)C1CCN(C)CC1 [Compound 104]		
